Assay results from BindingDB's records for doi:10.1016/s0960-894x(02)00886-7 (National Institute of Radiological Sciences, 2002).

Assay: In vitro binding affinity for PBR (peripheral benzodiazepine receptor) in monkey brain

Ki: 0.188 nM
SMILES: COc1ccc(OC)c(CN(C(C)=O)c2cc(F)ccc2Oc2ccccc2)c1
